Reference: ChEMBL document CHEMBL3046782, “Fungicidial Activity of Benthiavalicarb-isopropyl against Phytophthora infestans and Its Controlling Activity against Late Blight Diseases” (J Pestic Sci, 2005)
Converted amounts (≈) assume the structure as drawn. The source made the active and inactive calls. The rule behind the calls is not given here.

Tests used:
Phytophthora palmivora = test: Antifungal activity against Phytophthora palmivora IFO 30285 assessed as inhibition of mycelial growth after 5 to 7 days; type: functional, organism-based; conditions: for IC50: read-out: I50
Phytophthora capsici = test: Antifungal activity against Phytophthora capsici IFO 8386 assessed as inhibition of mycelial growth after 5 to 7 days; type: functional, organism-based; conditions: for IC50: read-out: I50
Phytophthora infestans [1] = test: Antifungal activity against Phytophthora infestans r1234 assessed as inhibition of mycelial growth after 5 to 7 days; type: functional, organism-based; conditions: for IC50: read-out: I50
Phytophthora katsurae = test: Antifungal activity against Phytophthora katsurae assessed as inhibition of mycelial growth after 5 to 7 days; type: functional, organism-based; conditions: for IC50: read-out: I50
Phytophthora nicotianae = test: Antifungal activity against Phytophthora nicotianae IFO 30595 assessed as inhibition of mycelial growth after 5 to 7 days; type: functional, organism-based; conditions: for IC50: read-out: I50
Phytophthora megasperma = test: Antifungal activity against Phytophthora megasperma assessed as inhibition of mycelial growth after 5 to 7 days; type: functional, organism-based; conditions: for IC50: read-out: I50
Phytophthora porri = test: Antifungal activity against Phytophthora porri IFO 30416 assessed as inhibition of mycelial growth after 5 to 7 days; type: functional, organism-based; conditions: for IC50: read-out: I50
Phytophthora infestans [2] = test: Antifungal activity against Phytophthora infestans C-3 assessed as inhibition of mycelial growth after 5 to 7 days; type: functional, organism-based; conditions: for IC50: read-out: I50
Phytophthora cactorum = test: Antifungal activity against Phytophthora cactorum IFO 30474 assessed as inhibition of mycelial growth after 5 to 7 days; type: functional, organism-based; conditions: for IC50: read-out: I50
Phytophthora infestans [3] = test: Antifungal activity against Phytophthora infestans r1234-2 assessed as inhibition of mycelial growth after 5 to 7 days; type: functional, organism-based; conditions: for IC50: read-out: I50
Phytophthora infestans [4] = test: Antifungal activity against Phytophthora infestans r0-3 assessed as inhibition of mycelial growth after 5 to 7 days; type: functional, organism-based; conditions: for IC50: read-out: I50
Phytophthora infestans [5] = test: Antifungal activity against Phytophthora infestans infected potato plant assessed as control of late blight at 50 to 75 g/ha treated 4 to 5 times at 7 day interval; type: functional, organism-based
Phytophthora infestans [6] = test: Antifungal activity against Phytophthora infestans in potato tuber slices assessed as inhibition of zoosporangia germination at 0.1 ug/ml after 6 hr relative to control; type: functional
Phytophthora infestans [7] = test: Antifungal activity against Phytophthora infestans infected tomato assessed as control of late blight at 300 mg/l after 24 hr by greenhouse test; type: functional, organism-based
Phytophthora infestans [8] = test: Antifungal activity against Phytophthora infestans in potato tuber slices assessed as inhibition of cystospore germination at 10 ug/ml after 6 hr relative to control; type: functional
Phytophthora infestans [9] = test: Antifungal activity against Phytophthora infestans in potato tuber slices assessed as inhibition of zoosporangia release at 100 ug/ml after 3 hr relative to control; type: functional
Phytophthora infestans [10] = test: Antifungal activity against Phytophthora infestans in potato tuber slices assessed as inhibition of cystospore germination at 0.1 ug/ml after 6 hr relative to control; type: functional
Phytophthora infestans [11] = test: Antifungal activity against Phytophthora infestans in potato tuber slices assessed as inhibition of zoosporangia release at 1 ug/ml after 3 hr relative to control; type: functional
Phytophthora infestans [12] = test: Antifungal activity against Phytophthora infestans in potato tuber slices assessed as inhibition of cystospore germination at 1 ug/ml after 6 hr relative to control; type: functional
Phytophthora infestans [13] = test: Antifungal activity against Phytophthora infestans infected tomato assessed as translaminar activity of controlling late blight at 3 to 100 mg/l after 24 hr; type: functional, organism-based
Phytophthora infestans [14] = test: Antifungal activity against Phytophthora infestans in potato tuber slices assessed as inhibition of zoosporangia motility at 100 ug/ml after 3 hr relative to control; type: functional, organism-based
Phytophthora infestans [15] = test: Antifungal activity against Phytophthora infestans in potato tuber slices assessed as inhibition of zoosporangia motility at 10 ug/ml after 3 hr relative to control; type: functional, organism-based
Phytophthora infestans [16] = test: Antifungal activity against Phytophthora infestans in potato tuber slices assessed as inhibition of zoosporangia release at 10 ug/ml after 3 hr relative to control; type: functional
Phytophthora infestans [17] = test: microbe, parasite or virus in culture; type: functional; conditions: Tuber, in Solanum tuberosum, 48 h
Phytophthora infestans [18] = test: Antifungal activity against Phytophthora infestans infected tomato assessed as control of late blight at 10 mg/l after 12 hr by greenhouse test; type: functional, organism-based
Phytophthora infestans [19] = test: Antifungal activity against Phytophthora infestans infected tomato assessed as control of late blight at 25 to 50 g/ha treated 4 to 5 times at 7 day interval; type: functional, organism-based
Phytophthora infestans [20] = test: microbe, parasite or virus in culture; type: functional; conditions: Tuber, in Solanum tuberosum, 48 h; remark: listed apart in the source
Phytophthora infestans [21] = test: Antifungal activity against Phytophthora infestans in potato tuber slices assessed as inhibition of zoosporangia germination at 1 ug/ml after 6 hr relative to control; type: functional
Phytophthora infestans [22] = test: Antifungal activity against Phytophthora infestans TK-301 assessed as inhibition of mycelial growth after 5 to 7 days; type: functional, organism-based
Phytophthora infestans [23] = test: microbe, parasite or virus in culture; type: functional; conditions: Tuber, in Solanum tuberosum, 48 h; remark: listed apart in the source
Phytophthora infestans [24] = test: Antifungal activity against Phytophthora infestans infected tomato assessed as systemic activity of controlling late blight at 100 mg/l after 24 hr; type: functional, organism-based
Phytophthora infestans [25] = test: Antifungal activity against Phytophthora infestans in potato tuber slices assessed as inhibition of zoosporangia germination at 10 ug/ml after 6 hr relative to control; type: functional
Phytophthora infestans [26] = test: Antifungal activity against Phytophthora infestans in potato tuber slices assessed as inhibition of zoosporangia motility at 1 ug/ml after 3 hr relative to control; type: functional, organism-based

Question: Which results are given for `COCC(=O)N(c1c(C)cccc1C)C(C)C(=O)OC` (configuration not stated) [METALAXYL]?
Answer: MIC (Phytophthora palmivora): > 3 µg/mL; IC50 (Phytophthora palmivora): 0.54 µg/mL (≈ 1.93 µM); MIC (Phytophthora capsici): > 3 µg/mL; IC50 (Phytophthora capsici): 0.62 µg/mL (≈ 2.22 µM); MIC (Phytophthora infestans [1]): 0.3 µg/mL (≈ 1.07 µM); IC50 (Phytophthora infestans [1]): 0.09 µg/mL (≈ 0.322 µM); MIC (Phytophthora katsurae): > 100 µg/mL; IC50 (Phytophthora katsurae): 0.46 µg/mL (≈ 1.65 µM); MIC (Phytophthora nicotianae): > 3 µg/mL; IC50 (Phytophthora nicotianae): 0.08 µg/mL (≈ 0.286 µM); MIC (Phytophthora megasperma): > 100 µg/mL; IC50 (Phytophthora megasperma): 0.34 µg/mL (≈ 1.22 µM); MIC (Phytophthora porri): > 3 µg/mL; IC50 (Phytophthora porri): 0.08 µg/mL (≈ 0.286 µM); MIC (Phytophthora infestans [2]): 3 µg/mL (≈ 10.7 µM); IC50 (Phytophthora infestans [2]): 0.15 µg/mL (≈ 0.537 µM); MIC (Phytophthora cactorum): 0.3 µg/mL (≈ 1.07 µM); IC50 (Phytophthora cactorum): 0.03 µg/mL (≈ 0.107 µM); MIC (Phytophthora infestans [3]): > 10 µg/mL; IC50 (Phytophthora infestans [3]): 0.05 µg/mL (≈ 0.179 µM); MIC (Phytophthora infestans [4]): > 10 µg/mL; IC50 (Phytophthora infestans [4]): 0.21 µg/mL (≈ 0.752 µM)

Question: `CC(C)OC(=O)N[C@H](C(=O)N[C@H](C)c1nc2ccc(F)cc2s1)C(C)C` [BENTHIAVALICARB-ISOPROPYL] was tested. Which MIC (Phytophthora palmivora) did it give?
Answer: 0.1 µg/mL (≈ 0.262 µM)

Question: What about the IC50 (Phytophthora palmivora) of the same molecule?
Answer: 0.02 µg/mL (≈ 0.0524 µM)

Question: What about the Activity (Phytophthora infestans [5]) of the same molecule?
Answer: Active

Question: What about the inhibition at 0.1 µg/mL (Phytophthora infestans [6]) of the same molecule?
Answer: 98.6%

Question: And the Activity (Phytophthora infestans [7])?
Answer: Active

Question: What about the MIC (Phytophthora capsici) of the same molecule?
Answer: 0.03 µg/mL (≈ 0.0786 µM)

Question: And the IC50 (Phytophthora capsici)?
Answer: 0.01 µg/mL (≈ 0.0262 µM)

Question: And the inhibition at 10 µg/mL (Phytophthora infestans [8])?
Answer: 100%

Question: And the inhibition at 100 µg/mL (Phytophthora infestans [9])?
Answer: 45.5%

Question: And the inhibition at 0.1 µg/mL (Phytophthora infestans [10])?
Answer: 95.5%

Question: What about the inhibition at 1 µg/mL (Phytophthora infestans [11]) of the same molecule?
Answer: 0%

Question: And the inhibition at 1 µg/mL (Phytophthora infestans [12])?
Answer: 100%

Question: What about the Activity (Phytophthora infestans [13]) of the same molecule?
Answer: Active

Question: What about the inhibition (Phytophthora infestans [14]) of the same molecule?
Answer: inactive

Question: What about the inhibition (Phytophthora infestans [15]) of the same molecule?
Answer: inactive

Question: What about the inhibition at 10 µg/mL (Phytophthora infestans [16]) of the same molecule?
Answer: 0%

Question: And the inhibition at 10 µg/mL (Phytophthora infestans [17])?
Answer: 97.6%

Question: What about the MIC (Phytophthora infestans [1]) of the same molecule?
Answer: 0.1 µg/mL (≈ 0.262 µM)

Question: And the IC50 (Phytophthora infestans [1])?
Answer: 0.02 µg/mL (≈ 0.0524 µM)

Question: What about the Activity (Phytophthora infestans [18]) of the same molecule?
Answer: Active

Question: What about the Activity (Phytophthora infestans [19]) of the same molecule?
Answer: Active

Question: And the MIC (Phytophthora katsurae)?
Answer: 0.03 µg/mL (≈ 0.0786 µM)

Question: What about the IC50 (Phytophthora katsurae) of the same molecule?
Answer: 0.04 µg/mL (≈ 0.105 µM)

Question: And the inhibition at 0.1 µg/mL (Phytophthora infestans [20])?
Answer: 45.2%

Question: And the MIC (Phytophthora nicotianae)?
Answer: 0.1 µg/mL (≈ 0.262 µM)

Question: And the IC50 (Phytophthora nicotianae)?
Answer: 0.05 µg/mL (≈ 0.131 µM)

Question: And the inhibition at 1 µg/mL (Phytophthora infestans [21])?
Answer: 100%

Question: What about the MIC (Phytophthora infestans [22]) of the same molecule?
Answer: 0.03 µg/mL (≈ 0.0786 µM)

Question: And the IC50 (Phytophthora infestans [22]; read-out: I50)?
Answer: 0.03 µg/mL (≈ 0.0786 µM)

Question: And the inhibition at 1 µg/mL (Phytophthora infestans [23])?
Answer: 96.8%

Question: And the MIC (Phytophthora megasperma)?
Answer: 0.1 µg/mL (≈ 0.262 µM)

Question: What about the IC50 (Phytophthora megasperma) of the same molecule?
Answer: 0.02 µg/mL (≈ 0.0524 µM)

Question: And the Activity (Phytophthora infestans [24])?
Answer: Active

Question: What about the inhibition at 10 µg/mL (Phytophthora infestans [25]) of the same molecule?
Answer: 100%

Question: And the MIC (Phytophthora porri)?
Answer: 0.1 µg/mL (≈ 0.262 µM)

Question: And the IC50 (Phytophthora porri)?
Answer: 0.02 µg/mL (≈ 0.0524 µM)

Question: What about the inhibition (Phytophthora infestans [26]) of the same molecule?
Answer: inactive

Question: What about the MIC (Phytophthora infestans [2]) of the same molecule?
Answer: 0.1 µg/mL (≈ 0.262 µM)

Question: And the IC50 (Phytophthora infestans [2])?
Answer: 0.03 µg/mL (≈ 0.0786 µM)

Question: And the MIC (Phytophthora cactorum)?
Answer: 0.03 µg/mL (≈ 0.0786 µM)

Question: What about the IC50 (Phytophthora cactorum) of the same molecule?
Answer: 0.03 µg/mL (≈ 0.0786 µM)

Question: What about the MIC (Phytophthora infestans [3]) of the same molecule?
Answer: 0.1 µg/mL (≈ 0.262 µM)

Question: And the IC50 (Phytophthora infestans [3])?
Answer: 0.03 µg/mL (≈ 0.0786 µM)

Question: What about the MIC (Phytophthora infestans [4]) of the same molecule?
Answer: 0.03 µg/mL (≈ 0.0786 µM)

Question: And the IC50 (Phytophthora infestans [4])?
Answer: 0.03 µg/mL (≈ 0.0786 µM)
